Values quoted from earlier work in US6747011B1, “Antitumor drugs and methods” (A.P. Group, Inc., priority 2003, dated 2004).

Conditions: alkaline and physiological conditions

**Q.** Which “stability, isomerization to isoapoptolidin” value does the source give for `COC[C@@H](C[C@H]1O[C@@](O)([C@H](O)[C@@H]2C[C@H](OC)[C@@H](O)CC/C=C(C)/C=C/[C@@H](O[C@@H]3O[C@@H](C)[C@H](OC)[C@@H](O)[C@@H]3O)[C@H](C)/C=C(C)/C=C(C)/C=C(\C)C(=O)O2)[C@H](C)[C@@H](O)[C@H]1C)OC1C[C@](C)(O)[C@@H](O[C@H]2C[C@@H](OC)[C@H](O)[C@@H](C)O2)[C@H](C)O1` (stereo partly shown) [Apoptolidin] here?
**A.** unstable under alkaline and physiological conditions and readily isomerizes to isoapoptolidin
